Source: patent US5385899A, “Aminoalkyl-substituted 5,6-dihydro-dibenz[b,e]azepine-6,11-dione-11-oximes” (Bayer Aktiengesellschaft, priority 1991, dated 1995)
Read-outs that look alike come from different tables or passages of the source.

Tested on: HIV
Assay: HIV infection in cell culture: suppression of virus-induced syncytia (PBLs or H9 cells)
Type: cell-based
Details: read-out: IC50 (suppression of 50% of virus-induced syncytia)
Procedure: The HIV test was carried out with slight modifications according to the method of Pauwels et al. [cf. Journal of Virological Methods 20, (1988), 309-321].
Normal human blood lyphocytes (PBLs) were concentrated by means of Ficoll-Hypaque and stimulated with phytohaemagglutinin (90 μg/ml) and interleukin-2 (40 U/ml) in RPMI 1640 and 20% foetal calf serum. For infection with the infectious HIV, PBLs were pelleted and the cell pellet was then suspended in 1 ml of HIV virus adsorption solution and incubated for 1 hour at 37° C.
Alternatively, HIV-susceptible H9 cells were employed instead of normal human blood lymphocytes for testing the antiviral effects of the compounds according to the invention.
The virus adsorption solution was centrifuged and the infected cell pellet was taken up in growth medium so that a concentration of 1×10^5 cells per ml was established. The cells infected in this way were pipetted into the wells of 96-well microtiter plates to give 1×10^4 cells/well.
The first vertical row of the microtiter plate contained only growth medium and cells which had not been infected, but otherwise treated exactly as described above (cell control). The second vertical row of the microtiter plate contained only HIV-infected cells (virus control) in growth medium. The other wells contained the compounds according to the invention in differing concentrations, starting from the wells of the 3rd vertical row of the microtiter plate, from which the test substances were diluted 2^10 times in 2-fold steps.
The test batches were incubated at 37° C. until, in the untreated virus control, the syncytia formation typical of HIV occurred (between day 3 and 6 after infection), which was then microscopically assessed. Under these test conditions, in the untreated virus control about 20-50 syncytia resulted, while the untreated cell control contained no syncytia.
The IC50 values were determined as the concentration of the treated and infected cells at which 50% (about 10-20 syncytia) of the virus-induced syncytia were suppressed by treatment with the compound according to the invention.

[1] = Human immunodeficiency virus 1, 72 h, HIV-infected PBLs or alternatively H9 cells, syncytia assessed microscopically between day 3 and 6 after infection, 37° C.

IC50 [1]	SMILES	IC50 (Human immunodeficiency virus 1, H9, 72 h)
380 nM	CN(C)CCON=c1c2cc(Cl)ccc2[nH]c(=O)c2ccccc12 (mixture of isomers) [Example 1, (E/Z)-2-Chloro-11-(2-dimethylaminoethoxyimino)-6-oxo-5,6-dihydro-11H-dibenz[b,e] azepine]	
	Cc1ccnc2c1NC(=O)c1cccnc1N2C1CC1 [BIRG 587, reference compound]	90 nM
1500 nM	O=c1[nH]c2ccc(Cl)cc2c(=NOCCN2CCOCC2)c2ccccc12 [Example 3]	
